The numbers were not newly measured in patent US20230320382A1 (DSM IP Assets B.V., priority 2018, published 2023), which cites them from elsewhere.

Molecules are shown by their SMILES.

Setting [1] is: added to the diet of growing pigs.

Turning to `O=C(O)c1ccccc1` [Benzoic acid], under setting [1], the “Effect on blood pH” value is “only slightly reduces” and the “Effect on urine pH” value is reported as “markedly acidifies”. Also, the Site of absorption entry (ingested benzoic acid) is “absorbed in the first tract of the small intestine”.
